Patent US10351586B2, “Cytidine derivative dimers and applications thereof” (CHANGZHOU FANGYUAN PHARMACEUTICAL CO., LTD, priority 2014, dated 2019)
Marks after values point to notes of the source that are not given here.

Experiments:
[1] = test system: HCT-116 human colon cancer xenografts; test: Tumor growth inhibition of HCT-116 human colon cancer xenografts in nude mice; assay type: in vivo, Balb/c nude mice; conditions: for Relative tumor proliferation rate (T/C %) / Relative tumor volume (RTV) / Tumor growth inhibition rate (TGI %) / Tumor volume of HCT-116 human colon cancer xenografts: single IP injection (QD×1), D1 and D2 400 mg/kg, D3 350 mg/kg, D4 300 mg/kg; for Tumor volume of HCT-116 human colon cancer xenografts: Mean±SEM
How it was run: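 HCT-116 cells grown in F-12 with 10% FBS, inoculated into nude mice at ~3×10^7 cells/mL. Tumour diameter measured three times weekly, volume as V=3/4π(D/2)^3; activity given as TGI (%) versus control and T/C (%) from relative tumour volume Vt/V0.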

[2] = Body weight / toxicity of a single intraperitoneal injection in HCT-116 colon tumor-bearing nude mice; conditions: D3 350 mg/kg, D4 300 mg/kg; for Average rate of weight change of the animals / Average weight of the animals: single IP injection (QD×1), D1 and D2 400 mg/kg; for Average weight of the animals: Mean±SEM
Procedure: Corresponding test substance was weighed and put into a 5 mL glass tube. The test substance was dissolved in ethanol under the stirring by a 5 mm magnetic stirrer. After a complete dissolution, Cremophor EL was added with continuous stirring. Immediately prior to the user of the test substance, the labeled amount of physiological saline was added and stirred.
Animal experiments were performed. The animals were female Balb/c nude mice at specific pathogen free (SPF) level and were supplied from Shanghai Sippr/BK Lab Animal Ltd. (Shanghai, China). […] These animals were at the age of about 7 weeks to about 9 weeks at the beginning of the experiments and had the weight of about 18 grams to about 22 grams at the beginning of the experiment. The animals had acclimatization duration of about 5 days to about 7 days. Animals were numbered using their tail number. The animal room was maintained at about 23±2° C., 40%-70% humidity, with alternating light and dark every 12 hours.
4.2 Animal inoculation and grouping were performed. Under aseptic conditions, each nude mice was injected with 0.1 mL cell suspension into the right hind leg subcutaneously (3×10^6 cell/mouse). When the size of the tumor grew to have a volume of about 60-150 mm^3, nude mice with a similar tumor size and a desirable shape (e.g., with substantially same shape such as a substantially spherical shape, without having irregular shapes or multiple tumors grouped together) were selected and grouped. In the experiment, there were six mice in each group.
The mice in control group were injected with a mixed solution including ethanol, Cremophor EL and normal saline at a ratio of 5:5:90.
The mice were weighed 3 times every week.
4.4 Clinical symptoms were provided. All clinical symptoms of each animal were recorded at the beginning of the experiments and during the experiments. The observation was performed at the same time every day.
After administration of the test substance, when the weight reduction was >20%, when the animal was dying, or when the tumor volume exceeds about 2800 mm^3, the animal were euthanized by applying CO2. The tumor was separated and weighed, an autopsy was performed, and visual inspection was conducted and recorded on whether there were pathological changes in the organs.

[3] = D1 400 mg/kg Day 7, D2 400 mg/kg Day 9, D3 350 mg/kg Day 11, D4 300 mg/kg Day 11, single IP

O=C(CCCC(=O)OC[C@H]1O[C@@H](n2ccc(NC(=O)OCc3ccccc3)nc2=O)C(F)(F)[C@@H]1O)OC[C@H]1O[C@@H](n2ccc(NC(=O)OCc3ccccc3)nc2=O)C(F)(F)[C@@H]1O [Compound D3, 1,5-di-[4-N-(benzyloxycarbonyl)-2′-deoxy-2′,2′-difluoro-cytidine]glutarate]
Relative tumor proliferation rate, minimum [1, 3]: 3.41% | Tumor inhibition rate, maximum [1, 3]: 98.54% | Relative tumor proliferation rate (T/C %) ([1]; Day 0): 0.00% | Relative tumor volume (RTV) ([1]; Day 0): 1.00 | Tumor growth inhibition rate (TGI %) ([1]; Day 0): 0.00% | Tumor volume of HCT-116 human colon cancer xenografts ([1]; Day 0): 38.77 ± 4.33** mm^3 | Relative tumor proliferation rate (T/C %) ([1]; Day 1): 60.98% | Relative tumor volume (RTV) ([1]; Day 1): 0.98 ± 0.12 | Tumor growth inhibition rate (TGI %) ([1]; Day 1): 79.83% | Tumor volume of HCT-116 human colon cancer xenografts ([1]; Day 1): 36.40 ± 3.98** mm^3 | Relative tumor proliferation rate (T/C %) ([1]; Day 2): 49.58% | Relative tumor volume (RTV) ([1]; Day 2): 0.98 ± 0.12 | Tumor growth inhibition rate (TGI %) ([1]; Day 2): 83.59% | Tumor volume of HCT-116 human colon cancer xenografts ([1]; Day 2): 36.40 ± 3.98** mm^3 | Relative tumor proliferation rate (T/C %) ([1]; Day 4): 23.26% | Relative tumor volume (RTV) ([1]; Day 4): 0.65 ± 0.10 | Tumor growth inhibition rate (TGI %) ([1]; Day 4): 92.26% | Tumor volume of HCT-116 human colon cancer xenografts ([1]; Day 4): 23.00 ± 3.08** mm^3 | Relative tumor proliferation rate (T/C %) ([1]; Day 7): 6.76% | Relative tumor volume (RTV) ([1]; Day 7): 0.34 ± 0.06 | Tumor growth inhibition rate (TGI %) ([1]; Day 7): 97.08% | Tumor volume of HCT-116 human colon cancer xenografts ([1]; Day 7): 12.62 ± 3.10** mm^3 | Relative tumor proliferation rate (T/C %) ([1]; Day 9): 4.71% | Relative tumor volume (RTV) ([1]; Day 9): 0.32 ± 0.05 | Tumor growth inhibition rate (TGI %) ([1]; Day 9): 97.86% | Tumor volume of HCT-116 human colon cancer xenografts ([1]; Day 9): 12.62 ± 3.10** mm^3 | Relative tumor proliferation rate (T/C %) ([1]; Day 11): 3.41% | Relative tumor volume (RTV) ([1]; Day 11): 0.37 ± 0.09 | Tumor growth inhibition rate (TGI %) ([1]; Day 11): 98.54% | Tumor volume of HCT-116 human colon cancer xenografts ([1]; Day 11): 14.28 ± 3.69** mm^3 | Relative tumor proliferation rate (T/C %) ([1]; Day 14): 5.78% | Relative tumor volume (RTV) ([1]; Day 14): 1.00 ± 0.00 | Tumor growth inhibition rate (TGI %) ([1]; Day 14): 97.43% | Tumor volume of HCT-116 human colon cancer xenografts ([1]; Day 14): 36.98 ± 4.82** mm^3 | Relative tumor proliferation rate (T/C %) ([1]; Day 16): 10.49% | Relative tumor volume (RTV) ([1]; Day 16): 2.17 ± 0.14 | Tumor growth inhibition rate (TGI %) ([1]; Day 16): 95.58% | Tumor volume of HCT-116 human colon cancer xenografts ([1]; Day 16): 80.10 ± 11.07** mm^3 | Relative tumor proliferation rate (T/C %) ([1]; Day 18): 16.55% | Relative tumor volume (RTV) ([1]; Day 18): 3.16 ± 0.39 | Tumor growth inhibition rate (TGI %) ([1]; Day 18): 93.97% | Tumor volume of HCT-116 human colon cancer xenografts ([1]; Day 18): 120.40 ± 23.44** mm^3 | Relative tumor proliferation rate (T/C %) ([1]; Day 21): 23.70% | Relative tumor volume (RTV) ([1]; Day 21): 5.55 ± 0.66 | Tumor growth inhibition rate (TGI %) ([1]; Day 21): 91.65% | Tumor volume of HCT-116 human colon cancer xenografts ([1]; Day 21): 204.05 ± 36.25 mm^3 | Relative tumor proliferation rate (T/C %) ([1]; Day 23): 31.41% | Relative tumor volume (RTV) ([1]; Day 23): 6.21 ± 0.61 | Tumor growth inhibition rate (TGI %) ([1]; Day 23): 90.30% | Tumor volume of HCT-116 human colon cancer xenografts ([1]; Day 23): 229.06 ± 36.15 mm^3 | Relative tumor proliferation rate (T/C %) ([1]; Day 25): 33.40% | Relative tumor volume (RTV) ([1]; Day 25): 7.22 ± 0.53 | Tumor growth inhibition rate (TGI %) ([1]; Day 25): 89.70% | Tumor volume of HCT-116 human colon cancer xenografts ([1]; Day 25): 266.11 ± 39.63 mm^3 | Relative tumor proliferation rate (T/C %) ([1]; Day 28): 43.93% | Relative tumor volume (RTV) ([1]; Day 28): 9.28 ± 0.73 | Tumor growth inhibition rate (TGI %) ([1]; Day 28): 87.09% | Tumor volume of HCT-116 human colon cancer xenografts ([1]; Day 28): 347.17 ± 60.84 mm^3 | Relative tumor proliferation rate (T/C %) ([1]; Day 30): 52.09% | Relative tumor volume (RTV) ([1]; Day 30): 12.93 ± 0.90 | Tumor growth inhibition rate (TGI %) ([1]; Day 30): 82.93% | Tumor volume of HCT-116 human colon cancer xenografts ([1]; Day 30): 479.01 ± 75.54 mm^3 | Inhibition of growth of HCT-116 human colon cancer xenografts (in words) ([1]; single IP injection, 300-400 mg/kg): higher tumor inhibition rates | Average rate of weight change of the animals ([2]; Day 0): 0.00% | Average weight of the animals ([2]; Day 0): 19.95 ± 0.09 g | Average rate of weight change of the animals ([2]; Day 1): −3.59 ± 0.66% | Average weight of the animals ([2]; Day 1): 19.23 ± 0.31 g | Average rate of weight change of the animals ([2]; Day 2): −11.25 ± 0.96 % | Average weight of the animals ([2]; Day 2): 17.70 ± 0.26 g | Average rate of weight change of the animals ([2]; Day 4): −8.10 ± 2.84% | Average weight of the animals ([2]; Day 4): 18.24 ± 0.58 g | Average rate of weight change of the animals ([2]; Day 7): −1.68 ± 2.50% | Average weight of the animals ([2]; Day 7): 19.51 ± 0.48 g | Average rate of weight change of the animals ([2]; Day 9): 4.50 ± 1.93 % | Average weight of the animals ([2]; Day 9): 20.74 ± 0.38 g | Average rate of weight change of the animals ([2]; Day 11): 6.38 ± 1.68 % | Average weight of the animals ([2]; Day 11): 21.12 ± 0.41 g | Average rate of weight change of the animals ([2]; Day 14): 7.12 ± 1.19 % | Average weight of the animals ([2]; Day 14): 21.26 ± 0.21 g | Average rate of weight change of the animals ([2]; Day 16): 10.78 ± 0.88 % | Average weight of the animals ([2]; Day 16): 22.00 ± 0.40 g | Average rate of weight change of the animals ([2]; Day 18): 13.71 ± 0.63 % | Average weight of the animals ([2]; Day 18): 22.58 ± 0.38 g | Average rate of weight change of the animals ([2]; Day 21): 10.72 ± 1.6 % | Average weight of the animals ([2]; Day 21): 21.98 ± 0.41 g | Average rate of weight change of the animals ([2]; Day 23): 13.08 ± 2.31 % | Average weight of the animals ([2]; Day 23): 22.44 ± 0.41 g | Average rate of weight change of the animals ([2]; Day 25): 13.34 ± 2.34 % | Average weight of the animals ([2]; Day 25): 22.50 ± 0.53 g | Average rate of weight change of the animals ([2]; Day 28): 11.44 ± 2.29 % | Average weight of the animals ([2]; Day 28): 22.12 ± 0.48 g | Average rate of weight change of the animals ([2]; Day 30): 15.37 ± 2.93% | Average weight of the animals ([2]; Day 30): 22.90 ± 0.60 g | Toxicity in tumor-bearing mice (in words) ([2]; single IP injection, D2 400 mg/kg, judged from body weight versus control): no toxicity
